From the Deep4Chem optical property database
Blank lines part the entries; values can stand above or below the molecule they belong to.

Test: solvent given as SMILES

emission maximum (in ClC(Cl)Cl): 368 nm
SMILES: CCCCCCCCC1(CCCCCCCC)c2cc(-c3ccc([Si](C)(C)C)cc3)ccc2-c2ccc(-c3ccc([Si](C)(C)C)cc3)cc21

emission maximum (in C1CCCCC1): 438.4 nm | emission maximum (in ClC(Cl)Cl): 443 nm | emission maximum (in ClCCl): 448 nm
SMILES: c1cc2cccc3c4cccc5cccc(c(c1)c23)c54

emission maximum (in C1CCCCC1): 353 nm
SMILES: COc1ccc(-c2ccc(-c3ccccc3)cc2)cc1

emission maximum (in ClCCl): 391 nm
SMILES: CC1(C)c2ccccc2-c2cc3c(cc21)c1ccccc1n3-c1ccccc1

emission maximum (in C1CCCCC1): 396 nm
SMILES: COc1ccc2c3c(c4ccc(OC)cc4c2c1)C(C)(C)c1ccc2ccccc2c1-3

emission maximum (in CO): 830 nm
SMILES: O=S(=O)([O-])CCCCN1C=C/C(=C/C=C/C=C/c2cc[n+](CCCCS(=O)(=O)[O-])c3ccccc23)c2ccccc21

emission maximum (in ClCCl): 666 nm
SMILES: COc1ccc(C#Cc2c3cc4ccccc4cc3c(C#C[Si](C(C)C)(C(C)C)C(C)C)c3cc4ccccc4cc23)cc1

emission maximum (in C1CCCCC1): 461 nm | emission maximum (in C1CCOC1): 572 nm | emission maximum (in CC#N): 642 nm | emission maximum (in CS(C)=O): 641 nm | emission maximum (in ClCCl): 610 nm
SMILES: C(=C\c1ncnc2ccccc12)/c1ccc(-c2ccc(N(c3ccccc3)c3ccccc3)cc2)cc1

emission maximum (in ClC(Cl)Cl): 419 nm
SMILES: O=c1oc2ccccc2cc1-c1cccc(-c2cc3ccccc3oc2=O)c1

emission maximum (in CS(C)=O): 565 nm
SMILES: C[N+]1=C(/C=C/C=C2/N(CCCS(=O)(=O)[O-])c3ccccc3C2(C)C)C(C)(C)c2ccccc21

emission maximum (in CO): 648 nm | emission maximum (in CS(C)=O): 655 nm | emission maximum (in O): 658 nm
SMILES: CCCN1/C(=C/C=C(/C=C/C2=[N+](CCC)c3ccccc3C2(C)C)c2ccncc2)C(C)(C)c2ccccc21

emission maximum (in C1CCOC1): 496 nm | emission maximum (in CC#N): 545 nm | emission maximum (in CCCCCCC): 443 nm | emission maximum (in CS(C)=O): 550 nm | emission maximum (in ClCCl): 526 nm
SMILES: C(=C\c1ccncn1)/c1ccc(N(c2ccccc2)c2ccccc2)cc1

emission maximum (in C1COCCO1): 528 nm | emission maximum (in CC#N): 614 nm | emission maximum (in ClCCl): 571 nm
SMILES: Cc1ccc2nc(/C=C/c3ccc(N(C)C)cc3)c(-c3ccccc3)nc2c1

emission maximum (in CC#N): 436 nm | emission maximum (in CCCCCC): 378 nm
SMILES: C(=C\c1ccc(Nc2ccccc2)cc1)/c1ccccc1

emission maximum (in ClCCl): 508 nm
SMILES: [O-][n+]1c(/C=C/c2ccccc2)nc(Nc2ccccc2)c2c1CCCC2

The remaining lines, values behind:

SMILES: F[Si-](F)(c1ccccc1)(c1c2ccccc2cc2ccccc12)c1c2ccccc2cc2ccccc12
emission maximum (in C1CCOC1): 395 nm

SMILES: Cc1ccc(O)c(-c2[nH]c(=O)n3c2-c2ccccc2C3=O)c1
emission maximum (in CC#N): 480 nm | emission maximum (in CO): 500 nm | emission maximum (in ClCCl): 475 nm

SMILES: CC1(C)CC(/C=C/c2cn(-c3ccccc3)nc2-c2ccccc2)=CC(=C(C#N)C#N)C1
emission maximum (in C1CCOC1): 556 nm | emission maximum (in C1COCCO1): 548 nm | emission maximum (in CCO): 564 nm | emission maximum (in CCOC(C)=O): 564 nm | emission maximum (in CN(C)C=O): 565 nm | emission maximum (in CO): 561 nm | emission maximum (in CS(C)=O): 578 nm | emission maximum (in Cc1ccccc1): 542 nm | emission maximum (in ClC(Cl)Cl): 550 nm | emission maximum (in ClCCl): 550 nm

SMILES: O=c1cc[nH]c(=O)[nH]1
emission maximum (in CC#N): 311 nm

SMILES: FC(F)(F)C(F)(F)C(F)(F)C1=NC2=C(Sc3ccccc3)C=C3c4cc(Sc5ccccc5)c5nc(C(F)(F)C(F)(F)C(F)(F)F)nc6c(Sc7ccccc7)cc(c4c56)=C4C=C(Sc5ccccc5)C(=N1)C2C34 (centres undefined)
emission maximum (in C1CCOC1): 606 nm

SMILES: CC(C)(C)c1ccc2c(c1)c1cc(C(C)(C)C)cc3c1n2-c1cc(-c2cccc(F)c2)cc2c1B3c1cc(C(C)(C)C)cc3c4cc(C(C)(C)C)ccc4n-2c13
emission maximum (in Cc1ccccc1): 493.65 nm

SMILES: Cc1cc(N2c3ccccc3C3(c4ccccc4-c4ccccc43)c3ccccc32)c(C)cc1-c1nc(-c2ccccc2)nc(-c2ccccc2)n1
emission maximum (in Cc1ccccc1): 486 nm

SMILES: Cc1cc(O)c(-c2[nH]c(=O)n3c2-c2ccccc2C3=O)cc1Cl
emission maximum (in CC#N): 479 nm | emission maximum (in CO): 496 nm | emission maximum (in ClCCl): 478 nm

SMILES: OC1(c2ccc(-c3cccs3)s2)CCC1
emission maximum (in C1CCOC1): 470 nm | emission maximum (in CC#N): 460 nm | emission maximum (in CCCCCC): 465 nm | emission maximum (in CCO): 415 nm | emission maximum (in OCCOCCO): 465 nm | emission maximum (in c1ccncc1): 468 nm

SMILES: C(=C\c1cc(-c2ccccc2)c(/C=C/c2ccc(N(c3ccccc3)c3ccccc3)cc2)cc1-c1ccccc1)/c1ccc(N(c2ccccc2)c2ccccc2)cc1
emission maximum (in ClCCl): 495 nm

SMILES: COc1ccc(N(c2ccc(OC)cc2)c2ccc(-c3ccc(-c4ccc(-c5ccc(-c6ccc(N(c7ccc(OC)cc7)c7ccc(OC)cc7)cc6)s5)c5nsnc45)s3)cc2)cc1
emission maximum (in ClC(Cl)Cl): 710 nm

SMILES: CCCCC(CC)CN1C(=O)c2cc(Oc3ccc(C(C)(C)C)cc3)c3c4c(Oc5ccc(OC)cc5)cc5c6c(cc(Oc7ccc(OC)cc7)c(c7c(Oc8ccc(C(C)(C)C)cc8)cc(c2c37)C1=O)c64)C(=O)N(c1c(C(C)C)cccc1C(C)C)C5=O (centres undefined)
emission maximum (in Cc1ccccc1): 608 nm

SMILES: CCCc1ccc(C#Cc2cc(C#Cc3ccc(N(C)C)cc3)c3ccc4c(C#Cc5ccc(N(C)C)cc5)cc(C#Cc5ccc(N(C)C)cc5)c5ccc2c3c54)cc1
emission maximum (in ClCCl): 603 nm

SMILES: C(=C\c1nc2c(c(N3CCOCC3)n1)CCCC2)/c1ccccc1
emission maximum (in ClCCl): 333 nm

SMILES: O=C1c2ccccc2-c2c(-c3cc(Cl)ccc3O)[nH]c(=O)n21
emission maximum (in CC#N): 475 nm | emission maximum (in CO): 493 nm | emission maximum (in ClCCl): 475 nm

SMILES: c1ccc(N(c2ccccc2)c2cc3c4c(c2)N(c2ccccc2)c2cc5c(cc2B4c2ccccc2N3c2ccccc2)B2c3ccccc3N(c3ccccc3)c3cc(N(c4ccccc4)c4ccccc4)cc(c32)N5c2ccccc2)cc1
emission maximum (in Cc1ccccc1): 468 nm | emission maximum (in Cc1ccccc1-c1cccc(Oc2cc3c4c(c2)Oc2cc(-c5ccccc5C)ccc2B4c2ccc(-c4ccccc4C)cc2O3)c1): 473 nm

SMILES: c1ccc(-c2ccc(-c3ccc(-n4c5ccccc5c5ccccc54)cc3)c3nsnc23)cc1
emission maximum (in C1CCOC1): 527 nm | emission maximum (in CC(C)=O): 562 nm | emission maximum (in CCCCCC): 481 nm | emission maximum (in CCOCC): 504 nm

SMILES: Cc1cc(=O)c2c(ccc3ccc(O)cc32)o1
emission maximum (in CC#N): 430 nm

SMILES: CC1(C)c2ccccc2N(c2ccccc2)c2ccc(-c3ccc(S(=O)(=O)c4ccc(-c5ccc6c(c5)C(C)(C)c5ccccc5N6c5ccccc5)cc4)cc3)cc21
emission maximum (in Cc1ccccc1): 419.03 nm | emission maximum (in O=P(c1ccccc1)(c1ccccc1)c1ccccc1Oc1ccccc1P(=O)(c1ccccc1)c1ccccc1): 439 nm

SMILES: CN(C)c1ccc2c(-c3ccc(Br)cc3)c3ccc(=[N+](C)C)cc-3oc2c1
emission maximum (in CCO): 579 nm

SMILES: CCC1(CC)c2cc(/C=C/c3cc(C#N)c(/C=C/c4ccc5c(c4)C(CC)(CC)c4cc(N6c7ccccc7Sc7ccccc76)ccc4-5)cc3C#N)ccc2-c2ccc(N3c4ccccc4Sc4ccccc43)cc21
emission maximum (in C1CCOC1): 514 nm | emission maximum (in CC#N): 610 nm | emission maximum (in CCCCCC): 518 nm | emission maximum (in Cc1ccccc1): 547 nm | emission maximum (in ClCCl): 520 nm

SMILES: CCCCCCCCCCCCOc1cc2c3c(ccc4c5c(N6CCOCC6)cc6c7c(ccc(c1c34)c75)C(=O)N(C1CCCCC1)C6=O)C(=O)N(C1CCCCC1)C2=O
emission maximum (in ClC(Cl)Cl): 697 nm

SMILES: CCCCC(CC)Cn1c2cc(C#N)ccc2c2ccc(C#Cc3ccc4ccc5ccc(C#Cc6ccc7c8ccc(C#N)cc8n(CC(CC)CCCC)c7c6)c6ccc3c4c56)cc21 (centres undefined)
emission maximum (in ClCCl): 458 nm

SMILES: COc1ccc(-c2nc3ccccc3oc2=O)cc1
emission maximum (in c1ccccc1): 444 nm

SMILES: c1ccc(N(c2ccccc2)c2ccc(-c3ccc4c(c3)C3(c5cc(-c6ccc(N(c7ccccc7)c7ccccc7)cc6)ccc5-4)c4ccccc4N(c4ccccc4)c4ccccc43)cc2)cc1
emission maximum (in ClCCl): 451 nm | emission maximum (in c1cc(-n2c3ccccc3c3ccccc32)cc(-n2c3ccccc3c3ccccc32)c1): 432 nm

SMILES: N#Cc1ccc(/C=C2\OC(=O)c3cc(N)ccc32)cc1
emission maximum (in CC#N): 485.44 nm | emission maximum (in CC(C)=O): 482.16 nm | emission maximum (in CC(C)CO): 502.26 nm | emission maximum (in CC(C)O): 496.03 nm | emission maximum (in CCCO): 498.26 nm | emission maximum (in CCO): 502.77 nm | emission maximum (in CCOC(C)=O): 467.73 nm | emission maximum (in CCOCC): 444.84 nm | emission maximum (in CO): 503.52 nm

SMILES: O=C(O)c1ccccc1Nc1cccc(C(F)(F)F)c1
emission maximum (in C1CCCCC1): 406 nm | emission maximum (in C1CCOC1): 408 nm | emission maximum (in C1COCCO1): 410 nm | emission maximum (in CC#N): 426 nm | emission maximum (in CCOC(C)=O): 410 nm | emission maximum (in CN(C)C=O): 425 nm | emission maximum (in CO): 428 nm | emission maximum (in ClC(Cl)Cl): 426 nm

SMILES: COC(=O)CNC(=O)c1nc2c(N(C)C)nc(N(C)C)nc2n1Cc1ccccc1
emission maximum (in C1COCCO1): 397 nm | emission maximum (in CC#N): 409 nm | emission maximum (in CO): 429 nm | emission maximum (in ClCCl): 407 nm

SMILES: FC(F)(F)c1ccc(/C2=C3N=C(C(c4ccccc4)=C/3c3ccccc3)/C(c3ccc(C(F)(F)F)cc3)=c3\[nH]/c(c(-c4ccccc4)c3-c3ccccc3)=C(/c3ccc(C(F)(F)F)cc3)C3=N/C(=C(/c4ccc(C(F)(F)F)cc4)c4[nH]c2c(-c2ccccc2)c4-c2ccccc2)C(c2ccccc2)=C3c2ccccc2)cc1
emission maximum (in ClCCl): 730 nm

SMILES: Cc1nc2c(c[n+]1C)CN1C(=O)N([C@H]3O[C@@H](CO)[C@H](O)[C@@H]3O)C=CC1=N2
emission maximum (in CC#N): 416 nm | emission maximum (in CC(C)=O): 418 nm | emission maximum (in CCCCO): 417 nm | emission maximum (in CCCO): 417 nm | emission maximum (in CCO): 417 nm | emission maximum (in CO): 417 nm | emission maximum (in O): 414 nm | emission maximum (in [2H]OC): 417 nm | emission maximum (in [2H]OCC): 417 nm | emission maximum (in [2H]O[2H]): 414 nm

SMILES: CCC1(CC)c2cc(-c3cccs3)ccc2-c2c1c1c(c3c2C(CC)(CC)c2cc(-c4cccs4)ccc2-3)C(CC)(CC)c2cc(-c3cccs3)ccc2-1
emission maximum (in C1CCOC1): 385 nm

SMILES: N#Cc1ccc(C#Cc2ccccc2C#N)cc1
emission maximum (in ClC(Cl)Cl): 332 nm

SMILES: Clc1nc(Nc2ccccc2)nc(Nc2ccc3c4cccc5cccc(c6cccc2c63)c54)n1
emission maximum (in C1COCCO1): 478 nm | emission maximum (in CC#N): 477 nm | emission maximum (in CCCCOCCCC): 476 nm | emission maximum (in CCOC(C)=O): 475 nm

SMILES: O=[N+]([O-])c1ccc(C#Cc2ccc3ccc(C#Cc4ccc([N+](=O)[O-])cc4)cc3c2)cc1
emission maximum (in ClCCl): 527 nm
